These results are taken from patent US9682953B2, “Amide compounds, compositions and applications thereof” (Advinus Therapeutics Limited, priority 2011, dated 2017).

The target in experiment [1] is human Fatty Acid Amide Hydrolase (FAAH) (Homo sapiens (Human), UniProt O00519). The experiment is described as follows: biochemical. The conditions noted are these: read-out: hFAAH IC50.
Experiment [2] concerns the target rat Fatty Acid Amide Hydrolase (FAAH) (Rattus norvegicus (Rat), UniProt P97612). In words: FAAH in vitro fluorescence assay (AAMCA hydrolysis), rat enzyme. The class given is biochemical. The conditions noted are these: for inhibition at 0.1 µM: read-out: rFAAH % inhibition at 100 nM, 100 nM (tier I). The method, then:
Material and Reagents: All reagents were purchased from Sigma-Aldrich unless specified. […] Chaperone protein groEL-groES in pGRO7 plasmid (Takara Bio Inc, Japan) was co-expressed with Fatty Acid Amide Hydrolase (FAAH) to improve solubility of the protein expressed in E coli. […] Briefly, the bacterial cultures in Luria Broth (2 L) were induced with arabinose (2 mM) and Isopropyl (β-D-1-thiogalactopyranoside, IPTG (1 mM), for 20 h at room temperature. The cultures were centrifuged at 1200×g for 10 min and the cell pellet was resuspended in 100 mL buffer containing of 20 mM NaPi (pH 7.4), 100 mM NaCl, Benzonase (500u), Aprotinin (1 μg/mL) and Leupeptin (1 μg/mL). Cells were lyzed by sonication (Amp 20%, Pulse 15 s×15, on ice) and the cell debris removed by centrifugation at 5000×g for 20 min. The supernatant was enriched via ultracentrifugation at 100,000×g for 1 h and the cell pellet was resuspended in 16 mL buffer containing 20 mM NaPi (pH 7.8), 500 mM NaCl, 1% Triton X-100. The resuspended cell extract was subjected to ultra-centrifugation at 100,000×g for 1 h and the enriched supernatant was used in the in vitro assay. All protein extraction steps were carried out on ice or at 4° C.
The assay was carried out in 200 μL volume in a 96-well black polystyrene plate (Greiner Bio-one, Germany). Each reaction consisted of human Fatty Acid Amide Hydrolase (FAAH) protein and 10 μM AAMCA in assay buffer containing 50 mM HEPES, 1 mM EDTA and 0.1% BSA, pH 7.4. The reaction was incubated with 2 μL of varying concentrations of inhibitor in DMSO (final concentration of DMSO 1%) with shaking for 1 min and monitored for increase in fluorescence in kinetic mode for 50 min. […] Rate of reaction as a function of the concentration of the inhibitor was used to determine the IC50 of the inhibitors. Data was analyzed using GraphPad Prism 5 (GraphPad Software Inc., San Diego, Calif.). The activity of the compounds for rat Fatty Acid Amide Hydrolase (FAAH) was evaluated as described above with rat Fatty Acid Amide Hydrolase (FAAH) protein and 10 μM AAMCA substrate.

Molecules are shown by their SMILES. Where two headings read alike, the source gives them in different places.

human Fatty Acid Amide Hydrolase (FAAH), sequence (O00519 30-579): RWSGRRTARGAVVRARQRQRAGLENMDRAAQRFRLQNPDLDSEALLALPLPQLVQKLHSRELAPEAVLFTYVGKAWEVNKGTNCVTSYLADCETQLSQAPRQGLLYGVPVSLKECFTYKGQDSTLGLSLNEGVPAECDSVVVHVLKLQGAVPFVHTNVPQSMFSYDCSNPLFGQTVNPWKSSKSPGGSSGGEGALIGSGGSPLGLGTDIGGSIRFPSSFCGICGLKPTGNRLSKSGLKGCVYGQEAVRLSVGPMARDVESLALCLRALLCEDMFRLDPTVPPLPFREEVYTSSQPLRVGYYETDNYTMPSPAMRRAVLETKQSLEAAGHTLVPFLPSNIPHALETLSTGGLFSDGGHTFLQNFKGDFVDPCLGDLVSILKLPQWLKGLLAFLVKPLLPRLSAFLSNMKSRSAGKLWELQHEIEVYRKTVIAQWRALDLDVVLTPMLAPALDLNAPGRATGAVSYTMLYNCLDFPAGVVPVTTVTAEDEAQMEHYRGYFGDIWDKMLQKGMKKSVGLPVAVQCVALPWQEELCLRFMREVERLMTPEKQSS
rat Fatty Acid Amide Hydrolase (FAAH), sequence (P97612 30-579): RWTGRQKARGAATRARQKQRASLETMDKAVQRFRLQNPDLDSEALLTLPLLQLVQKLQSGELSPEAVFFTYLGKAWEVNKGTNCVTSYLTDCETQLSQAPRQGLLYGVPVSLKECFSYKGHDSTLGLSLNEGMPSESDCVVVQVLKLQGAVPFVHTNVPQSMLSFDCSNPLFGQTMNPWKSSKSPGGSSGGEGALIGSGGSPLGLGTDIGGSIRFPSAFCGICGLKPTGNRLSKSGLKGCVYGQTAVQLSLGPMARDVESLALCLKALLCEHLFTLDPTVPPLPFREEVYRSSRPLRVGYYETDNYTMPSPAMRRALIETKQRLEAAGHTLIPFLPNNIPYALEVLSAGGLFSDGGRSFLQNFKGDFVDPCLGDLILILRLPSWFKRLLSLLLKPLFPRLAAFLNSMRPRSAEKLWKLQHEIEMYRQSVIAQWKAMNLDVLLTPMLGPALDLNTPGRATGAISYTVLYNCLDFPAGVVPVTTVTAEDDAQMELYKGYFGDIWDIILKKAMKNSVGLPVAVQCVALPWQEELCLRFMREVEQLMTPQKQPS

As for `O=C(NC1CCC(=Cc2cccc(Oc3ccc(C(F)(F)F)cn3)c2)CC1)c1cccnn1` (single isomer, unassigned; (+)) [Example 20.A-15, (+)-N-[4-[[3-[[5-(trifluoromethyl)-2-pyridyl]oxy]phenyl]methylene]cyclohexyl]pyridazine-3-carboxamide], the IC50 in experiment [1] was 431 nM; in experiment [2] (rat FAAH, read-out: rFAAH IC50) it was 408 nM.
Regarding `O=C(NC1CCC(=Cc2cccc(Oc3ccc(C(F)(F)F)cn3)c2)CC1)c1c[nH]c2ccccc12` (single isomer, unassigned; (+)) [Example 20.A-17, (+)-N-[4-[[3-[[5-(trifluoromethyl)-2-pyridyl]oxy]phenyl]methylene]cyclohexyl]-1H-indole-3-carboxamide], in experiment [1], the IC50 is 155 nM. In addition, the inhibition at 10 µM in experiment [2] (read-out: rFAAH % inhibition at 10 uM, rat FAAH, 10 uM) amounted to 90%.
Turning to `Nc1ccc(C(=O)NC2CCC(=Cc3cccc(Oc4ccc(C(F)(F)F)cn4)c3)CC2)cn1` (single isomer, unassigned; (-)) [Example 20.A-4, (−)-6-Amino-N-[4-[[3-[[5-(trifluoromethyl)-2-pyridyl]oxy]phenyl]methylene]cyclohexyl]pyridine-3-carboxamide], the IC50 in experiment [1] is 1 nM; in experiment [2] (rat FAAH, read-out: rFAAH IC50), 11 nM.
`Cc1cc(C(=O)NC2CCC(=Cc3cccc(Oc4ccc(C(F)(F)F)cn4)c3)CC2)cnc1N` (single isomer, unassigned; (-)) [Example 20.A-6, (−)-6-Amino-5-methyl-N-[4-[[3-[[5-(trifluoromethyl)-2-pyridyl]oxy]phenyl]methylene]cyclohexyl]pyridine-3-carboxamide]: the IC50 in experiment [1] (human FAAH) came out at 1 nM; in experiment [2] (rat FAAH, read-out: rFAAH IC50) it was 10 nM.
In the case of `O=C(NC1CCC(=Cc2cccc(Oc3ccc(C(F)(F)F)cn3)c2)CC1)c1c[nH]nc1C(F)(F)F` (single isomer, unassigned; (-)) [Example 20.A-8, (−)-3-(Trifluoromethyl)-N-[4-[[3-[[5-(trifluoromethyl)-2-pyridyl]oxy]phenyl]methylene]cyclohexyl]-1H-pyrazole-4-carboxamide], the IC50 in experiment [1] was determined as 1 nM; in experiment [2] (rat FAAH, read-out: rFAAH IC50), 30 nM.
For `Nc1ncc(C(=O)NC2CCC(=Cc3cccc(Oc4ccc(C(F)(F)F)cn4)c3)CC2)cn1` (single isomer, unassigned; (-)) [Example 20.A-10], the concentration for half-maximal inhibition (IC50) in experiment [1] is 0.6 nM; in experiment [2] (rat FAAH, read-out: rFAAH IC50) it was 7 nM.
`O=C(NC1CCC(=Cc2cccc(Oc3ccc(C(F)(F)F)cn3)c2)CC1)c1cn[nH]c1` (single isomer, unassigned; (-)) [Example 20.A-12, (−)-N-[4-[[3-[[5-(trifluoromethyl)-2-pyridyl]oxy]phenyl]methylene]cyclohexyl]-1H-pyrazole-4-carboxamide]: the concentration for half-maximal inhibition (IC50) in experiment [1] (human FAAH) worked out at 1.7 nM; in experiment [2] (rat FAAH, read-out: rFAAH IC50), 35.5 nM.
Consider `O=C(NC1CCC(=Cc2cccc(Oc3ccc(C(F)(F)F)cn3)c2)CC1)c1cnc2[nH]ccc2c1` (single isomer, unassigned; (-)) [Example 20.A-14, (−)-N-[4-[[3-[[5-(trifluoromethyl)-2-pyridyl]oxy]phenyl]methylene]cyclohexyl]-1H-pyrrolo[2,3-b]pyridine-5-carboxamide], for which the IC50 in experiment [1] came to 1 nM; in experiment [2] (rat FAAH, read-out: rFAAH IC50) it was 8.6 nM.
On the same counts, the results for `O=C(NC1CCC(=Cc2cccc(Oc3ccc(C(F)(F)F)cn3)c2)CC1)c1cccnn1` (single isomer, unassigned; (-)) [Example 20.A-16, (−)-N-[4-[[3-[[5-(trifluoromethyl)-2-pyridyl]oxy]phenyl]methylene]cyclohexyl]pyridazine-3-carboxamide] are 4 nM and 115 nM.
As to `O=C(NC1CCC(=Cc2cccc(Oc3ccc(C(F)(F)F)cn3)c2)CC1)c1c[nH]c2ccccc12` (single isomer, unassigned; (-)) [Example 20.A-18, (−)-N-[4-[[3-[[5-(trifluoromethyl)-2-pyridyl]oxy]phenyl]methylene]cyclohexyl]-1H-indole-3-carboxamide], the half-maximal inhibitory concentration (IC50) in experiment [1] (human FAAH) was 4 nM; in experiment [2] it was 35 nM.
Take `O=C(Nc1ncc(Cl)s1)C1CCC(=Cc2cccc(Oc3ccc(C(F)(F)F)cn3)c2)CC1` (stereo not shown) [Example 1.1, N-(5-Chlorothiazol-2-yl)-4-[[3-[[5-(trifluoromethyl)-2-pyridyl]oxy]phenyl]methylene]cyclohexanecarboxamide]: the IC50 in experiment [1] (human FAAH) was 16 nM; in experiment [2] (rat FAAH, read-out: rFAAH IC50) it was 60 nM.
In the same order, the values of `O=C(Nc1cnccn1)C1CCC(=Cc2cccc(Oc3ccc(C(F)(F)F)cn3)c2)CC1` (stereo not shown) [Example 1.A-3, N-Pyrazin-2-yl-4-[[3-[[5-(trifluoromethyl)-2-pyridyl]oxy]phenyl]methylene]cyclohexanecarboxamide] are 9 nM and 44 nM.
As to `Cc1ccc(C(=O)NC2CCC(=Cc3cccc(Oc4ccc(C(F)(F)F)cn4)c3)CC2)cn1` (stereo not shown) [Example 2.2, 6-Methyl-N-[4-[[3-[[5-(trifluoromethyl)-2-pyridyl]oxy]phenyl]-methylene]cyclohexyl]pyridine-3-carboxamide], the IC50 in experiment [1] turned out to be 5 nM; in experiment [2] (rat FAAH, read-out: rFAAH IC50), 28 nM.
For the compound `O=C(NC1CCC(=Cc2cccc(Oc3ccc(C(F)(F)F)cn3)c2)CC1)c1cc[nH]n1` (stereo not shown) [Example 2.A-1, N-[4-[[3-[[5-(Trifluoromethyl)-2-pyridyl]oxy]phenyl]methylene]cyclohexyl]-1H-pyrazole-3-carboxamide], the IC50 in experiment [1] (human FAAH) came out at 10 nM; in experiment [2] (rat FAAH, read-out: rFAAH IC50), 418 nM.
Regarding `O=C(NC1CCC(=Cc2cccc(Oc3ccc(C(F)(F)F)cn3)c2)CC1)c1ccccn1` (stereo not shown) [Example 2.A-4, N-[4-[[3-[[5-(Trifluoromethyl)-2-pyridyl]oxy]phenyl]methylene]cyclohexyl]pyridine-2-carboxamide], the IC50 in experiment [1] (human FAAH) came to 508 nM. Moreover, in experiment [2] (read-out: rFAAH % inhibition at 30 uM, rat FAAH, 30 uM), the inhibition at 30 µM turned out to be 70%.
Regarding `O=C(NC1CCC(=Cc2cccc(Oc3ccc(C(F)(F)F)cn3)c2)CC1)c1cnccn1` (stereo not shown) [Example 2.A-5, N-[4-[[3-[[5-(Trifluoromethyl)-2-pyridyl]oxy]phenyl]methylene]cyclohexyl]pyrazine-2-carboxamide], the concentration for half-maximal inhibition (IC50) in experiment [1] (human FAAH) was determined as 9 nM. In experiment [2] (rat FAAH), the inhibition at 0.1 µM was determined as 27%.
In the same order, the values of `O=C(NC1CCC(=Cc2cccc(Oc3ccc(C(F)(F)F)cn3)c2)CC1)c1ccc(C(F)(F)F)nc1` (stereo not shown) [Example 2.A-6, 6-(Trifluoromethyl)-N-[4-[[3-[[5-(trifluoromethyl)-2-pyridyl]oxy]phenyl]methylene]cyclohexyl]pyridine-3-carboxamide] are 102 nM and 37%.
Turning to `O=C(NC1CCC(=Cc2cccc(Oc3ccc(C(F)(F)F)cn3)c2)CC1)c1ccncc1` (stereo not shown) [Example 2.A-8, N-[4-[[3-[[5-(Trifluoromethyl)-2-pyridyl]oxy]phenyl]methylene]cyclohexyl]pyridine-4-carboxamide], the IC50 in experiment [1] (human FAAH) was 14 nM. Moreover, the inhibition at 0.1 µM in experiment [2] (rat FAAH) worked out at 14%.
For `O=C(NC1CCC(=Cc2cccc(Oc3ccc(C(F)(F)F)cn3)c2)CC1)c1cn[nH]c1` (stereo not shown) [Example 2.A-9, N-[4-[[3-[[5-(Trifluoromethyl)-2-pyridyl]oxy]phenyl]methylene]cyclohexyl]-1H-pyrazole-4-carboxamide], the IC50 in experiment [1] (human FAAH) stood at 2 nM; in experiment [2] (rat FAAH, read-out: rFAAH IC50), 53 nM.
Regarding `O=C(NC1CCC(=Cc2cccc(Oc3ccc(C(F)(F)F)cn3)c2)CC1)c1cccnn1` (stereo not shown) [Example 2.A-11, N-[4-[[3-[[5-(Trifluoromethyl)-2-pyridyl]oxy]phenyl]methylene]cyclohexyl]pyridazine-3-carboxamide], the IC50 in experiment [1] came out at 11 nM; in experiment [2] (rat FAAH, read-out: rFAAH IC50), 194 nM.

In general, IC50 refers to the concentration that inhibits the measured activity by half. What is called inhibition is the change of the read-out against control, counted positive when it falls.
